In paper PMC5007466, “VCP recruitment to mitochondria causes mitophagy impairment and neurodegeneration in models of Huntington's disease” (Nature Communications, 2016):

What was measured:
[1] = test system: HdhQ111 / HdhQ7 mouse striatal cells; assay: VCP mitochondrial level, mouse striatal cells (western blot); assay type: cell-based
Procedure: Immortalized striatal cell lines HdhQ111 mutant and HdhQ7 wt cells were obtained from the CHDI Foundation. Cells were cultured in DMEM supplemented with 10% FBS, 100 μg/ml penicillin, 100 μg ml^−1 streptomycin, and 400 μg ml^−1 G418. Cells were grown at 33 °C in a 5% CO2 incubator. Cells within 14 passages were used in all experiments.
For silencing Htt and VCP in HD striatal cells, control siRNA, mouse Htt and mouse VCP siRNA were purchased from Thermo Fisher Scientific. HdhQ7 and HdhQ111 cells were transfected either with control siRNA, or Htt or VCP siRNA using TransIT-TKO Transfection Reagent (Mirus Bio, LLC), according to the manufacturer's instructions. The sequences for the siRNAs used in this study are as follows: mouse Htt, 5′-[…]-3′; Mouse VCP, 5′-GAGAGCAACCUUCGUAAG-3′; control non-targeting siRNA, 5′-TTCTCCGAACGTGTCACGT-3′.
Cells were washed with cold PBS and incubated on ice for 30 min in a lysis buffer (250 mM sucrose, 20 mM HEPES-NaOH, pH 7.5, 10 mM KCl, 1.5 mM MgCl2, 1 mM EDTA, protease inhibitor cocktail and phosphatase inhibitor cocktail). Mouse brains were minced and homogenized in the lysis buffer and then placed on ice for 30 min. Collected cells or tissue were disrupted 20 times by repeated aspiration through a 25-gauge needle, followed by a 30-gauge needle. The homogenates were spun at 800 g for 10 min at 4 °C, and the resulting supernatants were spun at 10,000 g for 20 min at 4 °C. The pellets were washed with lysis buffer and spun at 10,000 g again for 20 min at 4 °C. The final pellets were suspended in lysis buffer containing 1% Triton X-100 and were mitochondrial-rich lysate fractions. The supernatant was centrifuged at 100,000 g, 4 °C, for 1 h, the pellets were suspended in lysis buffer containing 1% Triton X-100 as ER fractions. The final supernatant was cytosolic fractions. The mitochondrial proteins VDAC, the ER protein WFS1 and the cytosolic protein Enolase were used as loading controls for mitochondrial, ER and cytosolic fractions, respectively.
Protein concentrations were determined by Bradford assay. […]

[2] = test system: HdhQ111 mouse striatal cells; assay: GFP-LC3B puncta; assay type: cell-based; conditions: 3 uM/day for 3 days
Procedure: Figure 5 Treatment of HV-3 reduces excessive mitophagy in HD cell cultures and HD mouse brains. (a) HdhQ7 and HdhQ111 cells were treated with control siRNA (con) or VCP siRNA (siVCP) for 48 h. Mitochondria were isolated and LC3 mitochondrial levels were determined by WB. Representative blots are from three independent experiments. The quantitation of LC3 II levels on mitochondria is provided on the right. VADC was used as a loading control. (b) Flag-VCP and GFP-LC3B were co-transfected into wild-type striatal cells. Mitochondria were isolated after 36 h of transfection. The GFP-LC3B levels on mitochondria were examined by WB. VDAC was used as a loading control. Representative blots are from three independent experiments. Histogram: quantitation of GFP-LC3B mitochondrial protein level. HdhQ7 and HdhQ111 cells were treated with control peptide TAT or peptide HV-3 (3 uM/day for 3 days). (c) HdhQ111 cells were transfected with GFP-LC3B for 24 h. The number of GFP-LC3B puncta was quantitated and shown in the histogram. Scale bars: 10 μm. (d) Enzyme activity of lysosomal Cathepsin B was measured using a Cathepsin B assay kit. […] (e) Mitochondrial mass was measured by the fluorescent density of Mitotracker green. […] Histogram: the number of mitophagosomes per 100 μm^2 was counted and quantitated. Fifteen random areas in the striatum of each animal were analyzed. […]

[3] = test system: VCP/Htt interaction (GST-VCP with full-length Htt of mouse brain lysate); assay: GST pull-down of VCP/Htt interaction; assay type: binding; conditions: GST-VCP + total mouse brain lysate, 3 µM peptide, 16 h, n = 3
Procedure: Bacteria-expressed GST or GST–VCP, or GST–VCP truncated mutants were immobilized on glutathione-Sepharose 4B beads (GE Healthcare) for three hours and then washed three times. Beads were incubated with total lysates of mouse brains overnight at 4 °C. Beads were then washed with a GST binding buffer (100 mM NaCl, 50 mM NaF, 2 mM EDTA, 1% Triton-X-100 and protease inhibitor cocktail) and were analysed by SDS–PAGE and IB.
Supplementary Figure 4: Rational design of a peptide inhibitor to block VCP/Htt interaction. (a) GST or GST-VCP was incubated with total lysates of mouse brain and the indicated peptides ( 3 µM) for 16 hours, followed by immunoblotting with anti-Htt antibodies. Representative blots are from three independent experiments. Quantitation of VCP/Htt binding was shown below the blot as the m ean of three independent experiments. Data are mean ± SEM. *, p<0.05 vs. T AT -treated group (Paired Student’s t test). (b) HEK293 cells were co-expressed with GFP-VCP and Myc-73Q FL plasmids as indicated. After 48 hours incubation with the indicated peptides ( 3 µM/day, each), immunoprecipitation analysis was performed. The shown blots are from three independent experiments. (c) HEK293 cells were co-expressed with GFP-VCP and Myc-73Q FL plasmids as indicated. […] The blots of the bindings of mtHtt/VCP were quantitated with NIH Image J software. The IC50 was calculated. […]

With `CSCC[C@H](NC(=O)[C@@H](NC(=O)[C@H](CC(C)C)NC(=O)[C@@H](NC(=O)[C@H](Cc1c[nH]cn1)NC(=O)CCCCCNC(=O)[C@H](CCCNC(=N)N)NC(=O)[C@H](CCCNC(=N)N)NC(=O)[C@H](CCCNC(=N)N)NC(=O)[C@H](CCC(N)=O)NC(=O)[C@H](CCCNC(=N)N)NC(=O)[C@H](CCCNC(=N)N)NC(=O)[C@H](CCCCN)NC(=O)[C@H](CCCCN)NC(=O)[C@H](CCCNC(=N)N)NC(=O)CNC(=O)[C@@H](N)Cc1ccc(O)cc1)C(C)C)C(C)C)C(=O)N[C@@H](CS)C(=O)N[C@@H](C)C(=O)N[C@H](C(N)=O)[C@@H](C)O` [HV-3] the “VCP translocation to mitochondria” value ([1]; HdhQ111 cells, HV-3 3 μM per day for 3 days versus TAT, n=3) was “abolished VCP translocation to the mitochondria”, the “VCP mitochondrial levels, wt” value ([1]; wt counterparts of the HD models) was “only minor effects” and the “number of GFP-LC3B puncta” value [2] was “reduced by treatment with HV-3”. For the same molecule, the “block of VCP/Htt interaction” value [3] was “only the addition of peptide HV-3 blocks the interaction of VCP/Htt”.
